Earlier results on three compounds are cited in patent US20230089090A1, “Composition for Treating Viral Infections” (priority 2020, published 2023).

One may read the Ki as a measure of affinity in units of concentration, obtained from inhibition or displacement.

The conditions of series [1]: both flavonols administered simultaneously.
Series [2] concerns androgen receptor (AR)-positive C4-2 cells. The following applies: single compounds, read-out: half minimal inhibitory concentration (IC50).
The target in another series is human furin (Homo sapiens, UniProt P09958).
The conditions of series [3]: in vivo, 10 mg/kg.
Series [4] deals with HIV-1 infected lymphocytes. The following applies: similar to DRB and cell control.
The conditions of series [5]: significant amount excreted over a 24-h period.

Chain of human furin (P09958 108-794): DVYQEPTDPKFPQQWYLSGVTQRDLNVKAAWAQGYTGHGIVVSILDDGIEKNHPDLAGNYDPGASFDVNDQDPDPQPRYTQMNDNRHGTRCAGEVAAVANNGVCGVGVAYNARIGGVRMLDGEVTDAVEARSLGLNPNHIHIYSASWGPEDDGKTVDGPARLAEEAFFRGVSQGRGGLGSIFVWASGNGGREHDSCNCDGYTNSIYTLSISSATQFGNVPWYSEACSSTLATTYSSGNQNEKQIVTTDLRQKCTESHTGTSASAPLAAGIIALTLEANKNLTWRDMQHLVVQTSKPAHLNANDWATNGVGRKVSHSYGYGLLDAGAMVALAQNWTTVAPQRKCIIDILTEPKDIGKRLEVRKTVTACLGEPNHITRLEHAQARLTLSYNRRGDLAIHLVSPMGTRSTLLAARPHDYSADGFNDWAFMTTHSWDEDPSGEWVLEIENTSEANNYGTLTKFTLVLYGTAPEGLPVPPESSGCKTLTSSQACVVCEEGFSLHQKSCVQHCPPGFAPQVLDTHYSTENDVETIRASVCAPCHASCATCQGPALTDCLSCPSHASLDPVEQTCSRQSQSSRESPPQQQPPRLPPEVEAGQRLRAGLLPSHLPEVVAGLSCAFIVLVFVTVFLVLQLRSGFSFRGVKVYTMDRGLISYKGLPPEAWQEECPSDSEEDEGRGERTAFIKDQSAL

On to `O=c1c(O)c(-c2ccc(O)cc2)oc2cc(O)cc(O)c12` [kaempferol, 3,4′,5,7-tetrahydroxyflavone], for which the “effect on efflux of quercetin” value in series [1] was “blocked the efflux of quercetin”.
`O=c1cc(-c2ccc(O)c(O)c2)oc2cc(O)cc(O)c12` [luteolin, 2-(3,4-dihydroxyphenyl)-5,7-dihydroxy-4-chromenone]: in series [2], the IC50 was 114 µM. For the same compound, the “manner of inhibition of the enzyme activity” value on human furin was “uncompetitive”. For the same compound, the Ki on human furin (uncompetitive inhibition) is 58.6 µM. The adverse effects result in series [3] is listed as “Major adverse effects had not been observed”. In addition, the cell aggregation/syncytia entry in series [4] is “inhibition in cell aggregation/syncytia”. Also, the dengue virus replication result in the series on dengue virus (through inhibition of the proprotein convertase furin) is on record as “restricts dengue virus replication”. The “prM cleavage in virus particles” value in the series on dengue virus (virus particles from luteolin-treated cells) is “not cleaved efficiently”.
Consider `O=c1c(O)c(-c2ccc(O)c(O)c2)oc2cc(O)cc(O)c12` [quercetin, 2-(3,4-dihydroxyphenyl)-3,5,7-trihydroxy-4H-chromen-4-one], for which the “clearance and half-life in the blood” value in series [5] was “rapid clearance and a short half-life”.
